pIC50: −log10 of the molar value.
Experiments:
[1] = tested on: Renin mRNA; assay: Renin mRNA inhibition in murine juxtaglomerular cell line As4.1; type: cell-based; details: Mus musculus, As4.1 cells treated 24 h at 10^−8, 10^−9 and 10^−10 M, real time PCR normalized to β-actin, read-out: Renin mRNA inh.As4.1/wt
Experimental: As4.1 cells (80% subconfluent) were treated in complete medium with compounds of the invention at 10^−8,10^−9 and 10^−10 M for 24 h. Total RNA was extracted using RNeasy Mini kit (Qiagen); treated with DNase I (Qiagen) and Reverse Transcription Reagent (Applied Biosystems) with Random Examers were used for reverse transcription according to the manufacturers' instructions. Real Time PCR analysis was performed in multiplex using commercially available β-actin VIC-conjugated probe (cat. n. 4352341E, Applied Biosystems) and custom designed mRENIN FAM-conjugated probe (Assay by Design, Applied Biosystems; Forward: […]; Reverse: […]; Probe: FAM-[…]-MGB). Reactions were performed in a 25 μL volume containing 12.5 μl […] (Applied Biosystems), 10 ng/reaction/well cDNA, and 2.5 μM each gene-specific primer. An ABI PRISM 7700 analyzer (Applied Biosystems) was used at 50° C. for 2 minutes and 95° C. for 10 minutes, followed by 40 cycles at 95° C. for 15 seconds and 60° C. for 1 minute. Cycle threshold (Ct) values were exported onto Excel worksheets for analysis. Test cDNA results were normalized versus mouse β-actin housekeeping gene. Fold differences in gene expression between the subtracted versus the unsubtracted populations were expressed using the method of 2^−ΔΔCt. (Table 4)

[2] = Determination of Maximum Tolerated Dose (MTD) in mice (serum calcium); type: in vivo; details: mouse, po; female C57BL/6 mice, p.o. daily for four days; highest dose without hypercalcemia (serum calcium>10.7 mg/dl)
Experimental: The maximum tolerated dose of the vitamin D3 compounds of the invention were determined in eight week-old female C57BL/6 mice (3 mice/group) dosed orally (0.1 ml/mouse) with various concentrations of Vitamin D3 analogs daily for four days. Analogs were formulated in miglyol for a final concentration of 0.01, 0.03, 0.1, 0.3, 1, 3, 10, 30, 100 and 300 μg/kg when given at 0.1 ml/mouse p.o. daily. Blood for serum calcium assay was drawn by tail bleed on day five, the final day of the study. Serum calcium levels were determined using a colorimetric assay (Sigma Diagnostics, procedure no. 597). The highest dose of analog tolerated without inducing hypercalcemia (serum calcium>10.7 mg/dl) was taken as the maximum tolerated dose (MTD).

[3] = tested on: NHEK; assay: Proliferation assay, normal human keratinocytes NHEK; type: cell-based; details: 72 h culture, CyQuant proliferation assay
Experimental: (§1) Bladder cancer cell lines (T24, RT112, HT1376 and RT4 are human bladder cancer cell lines; NHEK are normal human keratinocytes) were obtained from the European Collection of Cell Cultures (Salisbury, UK). Cells were plated at 3×10^3 per well, in flat bottomed 96-well plates in 100 μl of DMEM medium containing: 5% Fetal Clone i, […] gentamicin, 1 mM sodium pyruvate and 1% non-essential amino acids. After culturing for 24 h at 37° C. in 5% CO2, to allow cells to adhere to the plates, VDR ligands (compounds (1)-(9)) were added at concentrations ranging from 100 μM to 0.3 μM in 100 μl of above-mentioned complete medium. After a further 72 h of culture, cell proliferation was measured using a fluorescence-based proliferation assay kit. (CyQuant Cell Proliferation Assay Kit, Molecular Probes, Eugene, Oreg., USA). The IC50 was calculated from the regression curve of the titration data.

[4] = tested on: RT112; assay: Proliferation assay, bladder cancer cell line RT112; type: cell-based, human; details: 72 h culture, CyQuant proliferation assay
Experimental: as §1

[5] = tested on: IFN-γ production; assay: IFN-γ production in the mixed leukocyte response (MLR) of allogeneic PBMC; type: cell-based; details: 120 h, 5 days, ELISA, read-out: INF-γ IC50
Experimental: Immature dendritic cells (DC) were prepared as described in Romani, N. et al. (Romani, N. et al. (1996) J. Immunol. Methyl. 196:137). IFN-γ production by allogeneic T cell activation in the mixed leukocyte response (MLR) was determined as described in Penna, G., et al., J Immunol., 164: 2405-2411 (2000).
Briefly, peripheral blood mononuclear cells (PBMC) were separated from buffy coats by Ficoll gradient and the same number (3×10^5) of allogeneic PBMC from 2 different donors were co-cultured in 96-well flat-bottom plates. The vitamin D3 compounds were added to each of the cultures. After 5 days, IFN-γ production in the MLR assay was measured by ELISA and the results expressed as amount (nM) of test compound required to induce 50% inhibition of IFN-γ production (IC50).

[6] = tested on: RT4; assay: Proliferation assay, bladder cancer cell line RT4; type: cell-based, human; details: 72 h culture, CyQuant proliferation assay
Experimental: as §1

[7] = tested on: HT 1376; assay: Proliferation assay, bladder cancer cell line HT1376; type: cell-based; details: Homo sapiens, 72 h culture, CyQuant proliferation assay
Experimental: as §1

SMILES	pIC50 [1]	MTD at 4 days [2] [mg/kg]	pIC50 [3]	pIC50 ([4]; Homo sapiens, RT-112)	pIC50 [5]	pIC50 ([6]; Homo sapiens, RT-4)	pIC50 [7]	pIC50 [4]	pIC50 ([4]; Homo sapiens, RT-112, 72 h)	pIC50 [6]	pIC50 ([6]; Homo sapiens, RT-4, 72 h)
[2H]C([2H])([2H])C(O)(CCCC1([C@H]2CCC3/C(=C/C=C4C[C@@H](OC(C)=O)C[C@H](OC(C)=O)C4)CCC[C@@]32C)CC1)C([2H])([2H])[2H] (stereo partly drawn) [Compound 2, 1,3-Di-O-acetyl-1,25-dihydroxy-20-cyclopropyl-26,27-hexadeutero-19-nor-cholecalciferol]	6.99	0.03	5.14	4.79	9.41	5.51					
[2H]C([2H])([2H])C(O)(CCCC1([C@H]2CCC3/C(=C/C=C4/C[C@@H](OC(C)=O)C[C@H](F)C4=C)CCC[C@@]32C)CC1)C([2H])([2H])[2H] (stereo partly drawn) [Compound 6, 3-O-acetyl-1α-fluoro-25-hydroxy-20-cyclopropyl-cholecalciferol]	8.35	0.03	5.25	4.71	9.13	5.35					
[2H]C([2H])([2H])C(O)(CCCC1(C2=CCC3/C(=C/C=C4/CC(O)C[C@H](F)C4=C)CCC[C@]23C)CC1)C([2H])([2H])[2H] (stereo partly drawn) [Compound 9, 1α-Fluoro-25-hydroxy-16-ene-20-cyclopropyl-26,27-hexadeutero-cholecalciferol]	7.89	0.01	5.15	≤ 4.52	9.31	5.37					
[2H]C([2H])([2H])C(O)(CCCC1([C@H]2CCC3/C(=C/C=C4/C[C@@H](OC(C)=O)C[C@H](OC(C)=O)C4=C)CCC[C@@]32C)CC1)C([2H])([2H])[2H] (stereo partly drawn) [Compound 4, 1,3-Di-O-acetyl-1,25-dihydroxy-20-cyclopropyl-26,27-hexadeutero-cholecalciferol]	6.56	0.03	5.25	4.73	9.33	5.52					
[2H]C([2H])([2H])C(O)(CCCC1([C@H]2CCC3/C(=C/C=C4/C[C@@H](O)C[C@H](O)C4=C)CCC[C@@]32C)CC1)C([2H])([2H])[2H] (stereo partly drawn) [Compound 3, 1,25-Dihydroxy-20-cyclopropyl-26,27-hexadeutero-cholecalciferol]	7.37	0.03	5.18	4.71	10.19	5.54					
[2H]C([2H])([2H])C(O)(CCCC1([C@H]2CCC3/C(=C/C=C4C[C@@H](O)C[C@H](O)C4)CCC[C@@]32C)CC1)C([2H])([2H])[2H] (stereo partly drawn) [Compound 1, 1,25-Dihydroxy-20-cyclopropyl-26,27-hexadeutero-19-nor-cholecalciferol]	6.81	0.03	5.25	< 4.52	10.29	4.93					
[2H]C([2H])([2H])C(O)(CCCC1(C2=CCC3/C(=C/C=C4/CC(O)C[C@H](O)C4=C)CCC[C@]23C)CC1)C([2H])([2H])[2H] (stereo partly drawn) [Compound 8, 1,25-Dihydroxy-16-ene-20-cyclopropyl-26,27-hexadeutero-cholecalciferol]	8.31	0.01	5.15	≤ 4.52	10.20	5.62					
[2H]C([2H])([2H])C(O)(CCCC1([C@H]2CCC3/C(=C/C=C4/C[C@@H](O)C[C@H](F)C4=C)CCC[C@@]32C)CC1)C([2H])([2H])[2H] (stereo partly drawn) [Compound 5, 1α-Fluoro-25-hydroxy-20-cyclopropyl-26,27-hexadeutero-cholecalciferol]		0.1	5.33	4.80	< 8.00	5.51					
[2H]C([2H])([2H])C(O)(CCCC1(C2=CCC3/C(=C/C=C4/CC(O)C[C@H](O)C4)CCC[C@]23C)CC1)C([2H])([2H])[2H] (stereo partly drawn) [Compound 7, 1,25-Dihydroxy-16-ene-20 cyclopropyl-26,27-hexadeutero-19-nor-cholecalciferol]	8.13	0.001	< 5.00	< 4.52	10.49	5.05					
C=C1/C(=C\C=C2/CCC[C@]3(C)C([C@H](C)CCCC(C)(C)O)CC[C@@H]23)C[C@@H](O)C[C@@H]1O (stereo partly drawn) [1,25(OH)2D3, 1,25-dihydroxycholecalciferol, reference compound]			5.35		10.30		4.30	4.54	4.72	4.59	4.35

From patent publication US20090298800A1, “1,25-DIHYDROXY, 20-CYCLOPROPYL,26-27-DEUTEROALKYL VITAMIN D3 COMPOUNDS AND METHODS OF USE THEREOF” (BioXell S.p.A., priority 2005, published 2009)
